Experimental data from the supplement of paper PMC9005190.

Assays:
GPR183 [1] = molecular target: GPR183 (UniProt P32249); assay: Emax (maximal agonist-induced change in ebBRET relative to vehicle) (% of vehicle response (amplitude of change)); higher = larger response (for Gs, larger decrease in membrane ebBRET, i.e. stronger Gs activation)
GPR183 [2] = molecular target: GPR183 (UniProt P32249); assay: pEC50 of agonist-induced pathway activation (ebBRET)
LPA1 = LPA1 (UniProt Q92633); assay: as above
LPA1, sequence (Q92633 whole entry): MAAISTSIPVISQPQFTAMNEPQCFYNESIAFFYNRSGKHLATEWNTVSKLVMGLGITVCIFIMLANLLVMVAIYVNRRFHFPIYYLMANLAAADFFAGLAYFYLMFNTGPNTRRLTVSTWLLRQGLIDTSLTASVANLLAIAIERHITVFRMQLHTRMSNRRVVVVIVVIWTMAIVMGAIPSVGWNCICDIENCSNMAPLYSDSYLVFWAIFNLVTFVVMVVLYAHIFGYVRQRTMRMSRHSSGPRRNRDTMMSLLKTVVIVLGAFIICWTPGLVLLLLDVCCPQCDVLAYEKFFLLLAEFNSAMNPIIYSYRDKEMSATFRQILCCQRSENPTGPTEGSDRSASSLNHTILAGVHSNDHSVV

EP1 = molecular target: T1, EP1 (UniProt P34995); assay: as above
T1 sequence (whole entry): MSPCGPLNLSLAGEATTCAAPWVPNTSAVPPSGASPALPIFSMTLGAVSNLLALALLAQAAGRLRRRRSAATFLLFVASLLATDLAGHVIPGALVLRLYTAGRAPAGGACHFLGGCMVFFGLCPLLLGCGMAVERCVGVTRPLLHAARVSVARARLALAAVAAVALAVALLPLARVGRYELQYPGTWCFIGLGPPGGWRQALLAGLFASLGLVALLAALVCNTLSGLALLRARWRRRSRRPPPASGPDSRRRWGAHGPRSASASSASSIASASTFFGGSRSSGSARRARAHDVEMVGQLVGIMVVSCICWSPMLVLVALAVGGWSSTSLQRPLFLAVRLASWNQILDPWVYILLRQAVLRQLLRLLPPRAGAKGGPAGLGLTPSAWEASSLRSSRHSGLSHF

PAR2 [3] = molecular target: PAR2 (UniProt P55085); assay: Emax (maximal agonist-induced change in ebBRET relative to vehicle) (% of vehicle response (amplitude of change)); higher = larger response (for Gs, larger decrease in membrane ebBRET, i.e. stronger Gs activation)
PAR2, sequence (P55085 whole entry): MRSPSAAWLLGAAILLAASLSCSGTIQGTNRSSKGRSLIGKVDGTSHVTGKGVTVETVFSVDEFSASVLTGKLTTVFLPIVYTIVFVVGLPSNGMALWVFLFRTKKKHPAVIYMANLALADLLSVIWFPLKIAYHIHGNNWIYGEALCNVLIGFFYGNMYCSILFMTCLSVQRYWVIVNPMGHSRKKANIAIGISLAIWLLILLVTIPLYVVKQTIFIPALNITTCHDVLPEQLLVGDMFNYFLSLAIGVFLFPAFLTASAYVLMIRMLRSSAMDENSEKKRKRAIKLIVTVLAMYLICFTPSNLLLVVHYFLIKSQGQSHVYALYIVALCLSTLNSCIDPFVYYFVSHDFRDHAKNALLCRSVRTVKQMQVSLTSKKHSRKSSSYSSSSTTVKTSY

PAR2 [4] = molecular target: PAR2 (UniProt P55085); assay: pEC50 of agonist-induced pathway activation (ebBRET)
S1P1 [5] = molecular target: S1P1 (UniProt P21453); assay: Emax (maximal agonist-induced change in ebBRET relative to vehicle) (% of vehicle response (amplitude of change)); higher = larger response (for Gs, larger decrease in membrane ebBRET, i.e. stronger Gs activation)
S1P1, sequence (P21453 whole entry): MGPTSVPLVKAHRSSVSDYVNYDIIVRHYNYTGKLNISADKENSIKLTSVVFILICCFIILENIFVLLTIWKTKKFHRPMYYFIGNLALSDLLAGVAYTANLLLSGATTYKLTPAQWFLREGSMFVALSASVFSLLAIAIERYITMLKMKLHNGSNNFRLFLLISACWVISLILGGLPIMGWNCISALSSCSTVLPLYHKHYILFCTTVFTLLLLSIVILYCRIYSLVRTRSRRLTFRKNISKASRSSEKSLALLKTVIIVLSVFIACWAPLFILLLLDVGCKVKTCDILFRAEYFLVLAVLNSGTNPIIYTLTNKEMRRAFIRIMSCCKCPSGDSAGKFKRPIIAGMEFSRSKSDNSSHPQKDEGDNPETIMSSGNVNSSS

S1P1 [6] = molecular target: S1P1 (UniProt P21453); assay: pEC50 of agonist-induced pathway activation (ebBRET)
PAR1 [7] = molecular target: T2, PAR1 (UniProt P25116); assay: Emax (maximal agonist-induced change in ebBRET relative to vehicle) (% of vehicle response (amplitude of change)); higher = larger response (for Gs, larger decrease in membrane ebBRET, i.e. stronger Gs activation)
T2 sequence (whole entry): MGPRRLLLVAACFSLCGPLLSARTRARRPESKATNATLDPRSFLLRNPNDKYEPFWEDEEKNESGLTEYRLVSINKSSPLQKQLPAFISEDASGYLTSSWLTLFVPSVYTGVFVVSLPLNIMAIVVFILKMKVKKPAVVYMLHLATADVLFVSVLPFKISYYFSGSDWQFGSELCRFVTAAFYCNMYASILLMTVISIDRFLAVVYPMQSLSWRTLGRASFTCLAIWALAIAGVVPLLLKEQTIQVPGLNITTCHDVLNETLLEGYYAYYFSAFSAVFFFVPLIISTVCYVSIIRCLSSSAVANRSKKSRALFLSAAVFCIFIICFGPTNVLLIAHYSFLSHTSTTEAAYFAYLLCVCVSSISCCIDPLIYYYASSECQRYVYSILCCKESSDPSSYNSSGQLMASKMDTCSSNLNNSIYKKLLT

PAR1 [8] = molecular target: T2, PAR1; assay: pEC50 of agonist-induced pathway activation (ebBRET)
P2Y2 [9] = molecular target: P2Y2 (UniProt P41231); assay: Emax (maximal agonist-induced change in ebBRET relative to vehicle) (% of vehicle response (amplitude of change)); higher = larger response (for Gs, larger decrease in membrane ebBRET, i.e. stronger Gs activation)
P2Y2, sequence (P41231 whole entry): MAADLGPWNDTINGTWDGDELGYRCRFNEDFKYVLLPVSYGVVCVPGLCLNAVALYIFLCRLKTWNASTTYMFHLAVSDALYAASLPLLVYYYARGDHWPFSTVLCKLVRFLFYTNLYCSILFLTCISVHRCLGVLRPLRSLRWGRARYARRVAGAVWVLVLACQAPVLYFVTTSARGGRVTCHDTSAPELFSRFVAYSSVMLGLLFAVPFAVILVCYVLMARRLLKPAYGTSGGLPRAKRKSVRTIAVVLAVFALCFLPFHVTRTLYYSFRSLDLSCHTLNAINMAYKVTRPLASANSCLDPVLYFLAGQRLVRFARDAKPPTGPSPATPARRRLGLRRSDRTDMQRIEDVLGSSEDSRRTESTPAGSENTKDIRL

P2Y2 [10] = molecular target: P2Y2 (UniProt P41231); assay: pEC50 of agonist-induced pathway activation (ebBRET)
GPR39 [11] = molecular target: T3, GPR39 (UniProt O43194); assay: Emax (maximal agonist-induced change in ebBRET relative to vehicle) (% of vehicle response (amplitude of change)); higher = larger response (for Gs, larger decrease in membrane ebBRET, i.e. stronger Gs activation)
T3 sequence (whole entry): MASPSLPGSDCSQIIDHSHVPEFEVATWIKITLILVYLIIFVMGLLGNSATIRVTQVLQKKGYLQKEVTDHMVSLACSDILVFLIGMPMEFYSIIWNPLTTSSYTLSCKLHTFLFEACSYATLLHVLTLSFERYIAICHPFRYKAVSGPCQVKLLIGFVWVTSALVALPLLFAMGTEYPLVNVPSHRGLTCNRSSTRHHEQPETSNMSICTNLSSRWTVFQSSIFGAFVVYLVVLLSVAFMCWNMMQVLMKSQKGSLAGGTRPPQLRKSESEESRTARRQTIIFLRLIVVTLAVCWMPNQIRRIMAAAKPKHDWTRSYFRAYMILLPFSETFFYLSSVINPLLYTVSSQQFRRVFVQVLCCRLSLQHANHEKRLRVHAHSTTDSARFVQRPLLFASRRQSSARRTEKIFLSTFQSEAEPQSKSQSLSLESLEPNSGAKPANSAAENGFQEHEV

GPR39 [12] = molecular target: T3, GPR39; assay: pEC50 of agonist-induced pathway activation (ebBRET)
FFA4 [13] = assay: Emax (maximal agonist-induced change in ebBRET relative to vehicle) (% of vehicle response (amplitude of change)); higher = larger response (for Gs, larger decrease in membrane ebBRET, i.e. stronger Gs activation)
FFA4 [14] = assay: pEC50 of agonist-induced pathway activation (ebBRET)

GPR183, sequence (P32249 whole entry): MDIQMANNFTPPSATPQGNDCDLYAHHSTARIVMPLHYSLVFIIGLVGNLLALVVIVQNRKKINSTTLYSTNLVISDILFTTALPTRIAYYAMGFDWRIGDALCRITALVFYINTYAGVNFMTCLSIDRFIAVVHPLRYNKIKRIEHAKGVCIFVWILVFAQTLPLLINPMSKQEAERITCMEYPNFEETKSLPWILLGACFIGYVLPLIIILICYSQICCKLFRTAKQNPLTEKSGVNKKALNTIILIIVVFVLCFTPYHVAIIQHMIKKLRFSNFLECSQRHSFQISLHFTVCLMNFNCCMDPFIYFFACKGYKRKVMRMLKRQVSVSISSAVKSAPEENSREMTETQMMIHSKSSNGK

C[C@H](CCCC(C)(C)O)[C@H]1CC[C@H]2[C@@H]3[C@H](O)C=C4C[C@@H](O)CC[C@]4(C)[C@H]3CC[C@]12C [7α-25 dihydroxycholesterol]
Settings	Emax, GPR183 [1]	pEC50, GPR183 [2]
pathway (G protein / arrestin sensor): G12	53.4	8.98
pathway (G protein / arrestin sensor): G15	38.1	8.51
pathway (G protein / arrestin sensor): Gi1	134	9.74
pathway (G protein / arrestin sensor): Gi2	144	9.75
pathway (G protein / arrestin sensor): GoA	166	9.16
pathway (G protein / arrestin sensor): GoB	190	9.75
pathway (G protein / arrestin sensor): Gz	123	9.16
pathway (G protein / arrestin sensor): βarr1/GRK2	1120	8.95
pathway (G protein / arrestin sensor): βarr2	502	8.23
pathway (G protein / arrestin sensor): βarr2/GRK2	573	8.8

CCCCCCCC/C=C\CCCCCCCC(=O)OCC(O)COP(=O)(O)O (stereo not given) [O-LPA]
LPA1
Settings	pEC50
pathway (G protein / arrestin sensor): G11	6.92
pathway (G protein / arrestin sensor): G13	8.35
pathway (G protein / arrestin sensor): G14	5.63
pathway (G protein / arrestin sensor): G15	6.31
pathway (G protein / arrestin sensor): Gi1	9.2
pathway (G protein / arrestin sensor): GoA	8.89
pathway (G protein / arrestin sensor): Gq	7.51
pathway (G protein / arrestin sensor): βarr1/GRK2	7.53
pathway (G protein / arrestin sensor): βarr2	6.58
pathway (G protein / arrestin sensor): βarr2/GRK2	7.46

CCCCC[C@H](O)/C=C/[C@H]1[C@H](O)CC(=O)[C@@H]1C/C=C\CCCC(=O)O [PGE2]
EP1
Settings	pEC50
pathway (G protein / arrestin sensor): G11	8.27
pathway (G protein / arrestin sensor): G12	9.51
pathway (G protein / arrestin sensor): G13	8.04
pathway (G protein / arrestin sensor): G14	7.95
pathway (G protein / arrestin sensor): G15	9.29
pathway (G protein / arrestin sensor): Gi1	6.43
pathway (G protein / arrestin sensor): Gi2	7.37
pathway (G protein / arrestin sensor): GoA	8
pathway (G protein / arrestin sensor): GoB	7.46
pathway (G protein / arrestin sensor): Gq	8.32
pathway (G protein / arrestin sensor): βarr2	7.41

CC[C@H](C)[C@H](NC(=O)[C@H](CC(C)C)NC(=O)[C@@H](N)CO)C(=O)NCC(=O)N[C@@H](CCCCN)C(=O)N[C@H](C(N)=O)C(C)C [SLIGKV-NH2]
Settings	Emax, PAR2 [3]	pEC50, PAR2 [4]
pathway (G protein / arrestin sensor): G11	483	5.96
pathway (G protein / arrestin sensor): G12	41.5	7.79
pathway (G protein / arrestin sensor): G13	235	6.87
pathway (G protein / arrestin sensor): G14	419	5.46
pathway (G protein / arrestin sensor): G15	498	5.81
pathway (G protein / arrestin sensor): Gi1	621	5.32
pathway (G protein / arrestin sensor): Gi2	326	5.65
pathway (G protein / arrestin sensor): GoA	217	5.85
pathway (G protein / arrestin sensor): GoB	320	6.32
pathway (G protein / arrestin sensor): Gq	304	5.18
pathway (G protein / arrestin sensor): Gz	188	6.23
pathway (G protein / arrestin sensor): βarr1/GRK2	861	4.65
pathway (G protein / arrestin sensor): βarr2	766	4.63
pathway (G protein / arrestin sensor): βarr2/GRK2	489	4.75

CCCCCCCCCCCCC/C=C/[C@@H](O)[C@@H](N)COP(=O)(O)O [Sphingosine 1-phosphate]
Settings	Emax, S1P1 [5]	pEC50, S1P1 [6]
pathway (G protein / arrestin sensor): G12	92	7.18
pathway (G protein / arrestin sensor): G13	175	6.86
pathway (G protein / arrestin sensor): G15	375	6.21
pathway (G protein / arrestin sensor): Gi1	132	8.15
pathway (G protein / arrestin sensor): Gi2	99.8	7.95
pathway (G protein / arrestin sensor): GoA	68.5	7.75
pathway (G protein / arrestin sensor): GoB	59.2	8.16
pathway (G protein / arrestin sensor): βarr1/GRK2	477	7.27
pathway (G protein / arrestin sensor): βarr2	227	6.83
pathway (G protein / arrestin sensor): βarr2/GRK2	557	7.46

CC(C)C[C@H](NC(=O)[C@H](CC(C)C)NC(=O)[C@H](Cc1ccccc1)NC(=O)[C@@H](N)[C@@H](C)O)C(=O)N[C@@H](CCCN=C(N)N)C(N)=O [TFLLR-NH2]
Settings	Emax, PAR1 [7]	pEC50, PAR1 [8]
pathway (G protein / arrestin sensor): G11	382	6.55
pathway (G protein / arrestin sensor): G13	193	7.11
pathway (G protein / arrestin sensor): G14	405	5.74
pathway (G protein / arrestin sensor): G15	332	6.22
pathway (G protein / arrestin sensor): Gi1	574	4
pathway (G protein / arrestin sensor): Gi2	177	5.04
pathway (G protein / arrestin sensor): GoA	73	5.89
pathway (G protein / arrestin sensor): GoB	221	6
pathway (G protein / arrestin sensor): Gq	238	6.72
pathway (G protein / arrestin sensor): Gz	144	6.41
pathway (G protein / arrestin sensor): βarr1/GRK2	446	5.08
pathway (G protein / arrestin sensor): βarr2	439	5.12
pathway (G protein / arrestin sensor): βarr2/GRK2	470	5.18

O=c1ccn([C@@H]2O[C@H](COP(=O)(O)OP(=O)(O)OP(=O)(O)O)[C@@H](O)[C@H]2O)c(=O)[nH]1 [UTP]
Settings	Emax, P2Y2 [9]	pEC50, P2Y2 [10]
pathway (G protein / arrestin sensor): G11	26.1	6.43
pathway (G protein / arrestin sensor): G14	26.7	6.29
pathway (G protein / arrestin sensor): G15	198	6.08
pathway (G protein / arrestin sensor): Gi1	59.2	6.29
pathway (G protein / arrestin sensor): Gi2	25.9	6.54
pathway (G protein / arrestin sensor): GoA	85.7	5.94
pathway (G protein / arrestin sensor): GoB	54.5	6.37
pathway (G protein / arrestin sensor): Gq	29.2	6.4
pathway (G protein / arrestin sensor): Gz	91.8	6.04
pathway (G protein / arrestin sensor): βarr1/GRK2	185	5.24
pathway (G protein / arrestin sensor): βarr2	346	4.99
pathway (G protein / arrestin sensor): βarr2/GRK2	94.7	5.36

[Cl][Zn][Cl] [Zn2+]
Settings	Emax, GPR39 [11]	pEC50, GPR39 [12]
pathway (G protein / arrestin sensor): G11	136	4.21
pathway (G protein / arrestin sensor): G13	120	5.39
pathway (G protein / arrestin sensor): G14	210	4.25
pathway (G protein / arrestin sensor): G15	37.6	4.38
pathway (G protein / arrestin sensor): Gi1	254	4.1
pathway (G protein / arrestin sensor): Gi2	80.9	4.19
pathway (G protein / arrestin sensor): GoA	137	4.16
pathway (G protein / arrestin sensor): GoB	197	4.25
pathway (G protein / arrestin sensor): Gq	113	4.48
pathway (G protein / arrestin sensor): βarr2	61.7	4.03
pathway (G protein / arrestin sensor): βarr2/GRK2	41.4	4.02

CC/C=C\C/C=C\C/C=C\CCCCCCCC(=O)O [α-linolenic acid]
Settings	Emax, FFA4 [13]	pEC50, FFA4 [14]
pathway (G protein / arrestin sensor): G11	288	5.08
pathway (G protein / arrestin sensor): G13	120	4.8
pathway (G protein / arrestin sensor): G14	297	5.5
pathway (G protein / arrestin sensor): G15	476	5.53
pathway (G protein / arrestin sensor): Gi1	35	6.12
pathway (G protein / arrestin sensor): Gi2	23.3	6.31
pathway (G protein / arrestin sensor): GoA	64	5.6
pathway (G protein / arrestin sensor): GoB	30.2	6.27
pathway (G protein / arrestin sensor): Gq	198	5.1
pathway (G protein / arrestin sensor): βarr1/GRK2	1090	4.7
pathway (G protein / arrestin sensor): βarr2	993	4.94
pathway (G protein / arrestin sensor): βarr2/GRK2	999	4.87
